Source: the supplement of paper PMC5662764
± gives the standard deviation of the averaged measurements.

How the values were obtained:
Assay in all cases: normalised growth rate inhibition (GR value) relative to DMSO control (GR (1 = untreated growth, 0 = cytostasis, <0 = cytotoxic)); higher = less growth inhibition
Details in all cases: 72 h
[1] = tested on: MCF10A
Protocol: (§1)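 Breast cancer cell lines (BT-20, Hs 578T, MCF 10A, MCF7, MDA-MB-231, SK-BR-3) were plated in 384-well plates and treated 24 h later with drugs at six concentrations (0.04-10 µM). Viable cells were counted by Hoechst/dead-cell-stain imaging at 0 and 72 h. Counts were normalised to DMSO controls on the same plate to give the relative cell count and the growth-rate inhibition (GR) value; technical plate triplicates were averaged for each biological replicate.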

[2] = tested on: BT20
Protocol: as §1

[3] = tested on: SKBR3
Protocol: as §1

[4] = tested on: HS578T
Protocol: as §1

[5] = tested on: MCF7
Protocol: as §1

[6] = tested on: MDAMB231
Protocol: as §1

Cn1cnc2c(F)c(Nc3ccc(Br)cc3Cl)c(C(=O)NOCCO)cc21 [selumetinib]
normalised growth rate inhibition ([1]; 0.04 µM): 0.598 ± 0.026
normalised growth rate inhibition ([1]; 0.12 µM): 0.455 ± 0.053
normalised growth rate inhibition ([1]; 0.37 µM): 0.36 ± 0.056
normalised growth rate inhibition ([1]; 1.11 µM): 0.281 ± 0.053
normalised growth rate inhibition ([1]; 3.33 µM): 0.25 ± 0.041
normalised growth rate inhibition ([1]; 10 µM): 0.177 ± 0.042
normalised growth rate inhibition ([2]; 0.04 µM): 1.11 ± 0.084
normalised growth rate inhibition ([2]; 0.12 µM): 1.03 ± 0.099
normalised growth rate inhibition ([2]; 0.37 µM): 0.999 ± 0.059
normalised growth rate inhibition ([2]; 1.11 µM): 1.01 ± 0.061
normalised growth rate inhibition ([2]; 3.33 µM): 0.974 ± 0.093
normalised growth rate inhibition ([2]; 10 µM): 0.975 ± 0.081
normalised growth rate inhibition ([3]; 0.04 µM): 1.139 ± 0.0015
normalised growth rate inhibition ([3]; 0.12 µM): 1.037 ± 0.0086
normalised growth rate inhibition ([3]; 0.37 µM): 1.044 ± 0.0095
normalised growth rate inhibition ([3]; 1.11 µM): 1.02 ± 0.052
normalised growth rate inhibition ([3]; 3.33 µM): 1.02 ± 0.033
normalised growth rate inhibition ([3]; 10 µM): 0.969 ± 0.034
normalised growth rate inhibition ([4]; 0.04 µM): 0.636 ± 0.094
normalised growth rate inhibition ([4]; 0.12 µM): 0.53 ± 0.1
normalised growth rate inhibition ([4]; 0.37 µM): 0.471 ± 0.068
normalised growth rate inhibition ([4]; 1.11 µM): 0.428 ± 0.055
normalised growth rate inhibition ([4]; 3.33 µM): 0.369 ± 0.036
normalised growth rate inhibition ([4]; 10 µM): 0.26 ± 0.056
normalised growth rate inhibition ([5]; 0.04 µM): 0.867 ± 0.13
normalised growth rate inhibition ([5]; 0.12 µM): 0.696 ± 0.071
normalised growth rate inhibition ([5]; 0.37 µM): 0.568 ± 0.062
normalised growth rate inhibition ([5]; 1.11 µM): 0.543 ± 0.072
normalised growth rate inhibition ([5]; 3.33 µM): 0.575 ± 0.063
normalised growth rate inhibition ([5]; 10 µM): 0.524 ± 0.024
normalised growth rate inhibition ([6]; 0.04 µM): 0.846 ± 0.078
normalised growth rate inhibition ([6]; 0.12 µM): 0.702 ± 0.097
normalised growth rate inhibition ([6]; 0.37 µM): 0.545 ± 0.088
normalised growth rate inhibition ([6]; 1.11 µM): 0.458 ± 0.068
normalised growth rate inhibition ([6]; 3.33 µM): 0.36 ± 0.068
normalised growth rate inhibition ([6]; 10 µM): 0.2 ± 0.083

CO[C@H]1C[C@@H]2CC[C@@H](C)[C@@](O)(O2)C(=O)C(=O)N2CCCC[C@H]2C(=O)O[C@H]([C@H](C)C[C@@H]2CC[C@@H](O)[C@H](OC)C2)CC(=O)[C@H](C)/C=C(\C)[C@@H](O)[C@@H](OC)C(=O)[C@H](C)C[C@H](C)/C=C/C=C/C=C/1C [sirolimus]
normalised growth rate inhibition ([1]; 0.04 µM): 0.982 ± 0.074
normalised growth rate inhibition ([1]; 0.12 µM): 0.999 ± 0.069
normalised growth rate inhibition ([1]; 0.37 µM): 0.995 ± 0.082
normalised growth rate inhibition ([1]; 1.11 µM): 0.997 ± 0.077
normalised growth rate inhibition ([1]; 3.33 µM): 1 ± 0.089
normalised growth rate inhibition ([1]; 10 µM): 0.986 ± 0.087
normalised growth rate inhibition ([2]; 0.04 µM): 0.54 ± 0.03
normalised growth rate inhibition ([2]; 0.12 µM): 0.514 ± 0.062
normalised growth rate inhibition ([2]; 0.37 µM): 0.522 ± 0.056
normalised growth rate inhibition ([2]; 1.11 µM): 0.524 ± 0.067
normalised growth rate inhibition ([2]; 3.33 µM): 0.536 ± 0.061
normalised growth rate inhibition ([2]; 10 µM): 0.587 ± 0.043
normalised growth rate inhibition ([3]; 0.04 µM): 0.47 ± 0.069
normalised growth rate inhibition ([3]; 0.12 µM): 0.449 ± 0.056
normalised growth rate inhibition ([3]; 0.37 µM): 0.405 ± 0.12
normalised growth rate inhibition ([3]; 1.11 µM): 0.389 ± 0.09
normalised growth rate inhibition ([3]; 3.33 µM): 0.366 ± 0.082
normalised growth rate inhibition ([3]; 10 µM): 0.353 ± 0.1
normalised growth rate inhibition ([4]; 0.04 µM): 0.629 ± 0.089
normalised growth rate inhibition ([4]; 0.12 µM): 0.619 ± 0.048
normalised growth rate inhibition ([4]; 0.37 µM): 0.619 ± 0.055
normalised growth rate inhibition ([4]; 1.11 µM): 0.632 ± 0.072
normalised growth rate inhibition ([4]; 3.33 µM): 0.621 ± 0.066
normalised growth rate inhibition ([4]; 10 µM): 0.62 ± 0.09
normalised growth rate inhibition ([5]; 0.04 µM): 0.502 ± 0.075
normalised growth rate inhibition ([5]; 0.12 µM): 0.502 ± 0.07
normalised growth rate inhibition ([5]; 0.37 µM): 0.486 ± 0.048
normalised growth rate inhibition ([5]; 1.11 µM): 0.49 ± 0.08
normalised growth rate inhibition ([5]; 3.33 µM): 0.495 ± 0.048
normalised growth rate inhibition ([5]; 10 µM): 0.456 ± 0.096
normalised growth rate inhibition ([6]; 0.04 µM): 0.802 ± 0.049
normalised growth rate inhibition ([6]; 0.12 µM): 0.781 ± 0.039
normalised growth rate inhibition ([6]; 0.37 µM): 0.812 ± 0.048
normalised growth rate inhibition ([6]; 1.11 µM): 0.787 ± 0.042
normalised growth rate inhibition ([6]; 3.33 µM): 0.784 ± 0.07
normalised growth rate inhibition ([6]; 10 µM): 0.8 ± 0.087

CNC(=O)c1cc(Oc2ccc(NC(=O)Nc3ccc(Cl)c(C(F)(F)F)c3)cc2)ccn1 [sorafenib]
normalised growth rate inhibition ([1]; 0.04 µM): 1.02 ± 0.046
normalised growth rate inhibition ([1]; 0.12 µM): 0.993 ± 0.048
normalised growth rate inhibition ([1]; 0.37 µM): 0.978 ± 0.047
normalised growth rate inhibition ([1]; 1.11 µM): 0.97 ± 0.034
normalised growth rate inhibition ([1]; 3.33 µM): 0.95 ± 0.038
normalised growth rate inhibition ([1]; 10 µM): 0.65 ± 0.1
normalised growth rate inhibition ([2]; 0.04 µM): 0.936 ± 0.017
normalised growth rate inhibition ([2]; 0.12 µM): 0.931 ± 0.023
normalised growth rate inhibition ([2]; 0.37 µM): 0.855 ± 0.052
normalised growth rate inhibition ([2]; 1.11 µM): 0.849 ± 0.036
normalised growth rate inhibition ([2]; 3.33 µM): 0.836 ± 0.026
normalised growth rate inhibition ([2]; 10 µM): 0.429 ± 0.35
normalised growth rate inhibition ([3]; 0.04 µM): 0.908 ± 0.048
normalised growth rate inhibition ([3]; 0.12 µM): 0.954 ± 0.093
normalised growth rate inhibition ([3]; 0.37 µM): 0.993 ± 0.07
normalised growth rate inhibition ([3]; 1.11 µM): 1.03 ± 0.074
normalised growth rate inhibition ([3]; 3.33 µM): 1.04 ± 0.084
normalised growth rate inhibition ([3]; 10 µM): 0.212 ± 0.27
normalised growth rate inhibition ([4]; 0.04 µM): 1.13 ± 0.076
normalised growth rate inhibition ([4]; 0.12 µM): 1.14 ± 0.061
normalised growth rate inhibition ([4]; 0.37 µM): 1.16 ± 0.098
normalised growth rate inhibition ([4]; 1.11 µM): 1.18 ± 0.12
normalised growth rate inhibition ([4]; 3.33 µM): 1.15 ± 0.11
normalised growth rate inhibition ([4]; 10 µM): 0.874 ± 0.093
normalised growth rate inhibition ([5]; 0.04 µM): 0.946 ± 0.023
normalised growth rate inhibition ([5]; 0.12 µM): 0.91 ± 0.057
normalised growth rate inhibition ([5]; 0.37 µM): 0.936 ± 0.028
normalised growth rate inhibition ([5]; 1.11 µM): 0.906 ± 0.072
normalised growth rate inhibition ([5]; 3.33 µM): 0.852 ± 0.089
normalised growth rate inhibition ([5]; 10 µM): 0.247 ± 0.12
normalised growth rate inhibition ([6]; 0.04 µM): 1.01 ± 0.045
normalised growth rate inhibition ([6]; 0.12 µM): 0.917 ± 0.13
normalised growth rate inhibition ([6]; 0.37 µM): 0.927 ± 0.11
normalised growth rate inhibition ([6]; 1.11 µM): 0.938 ± 0.18
normalised growth rate inhibition ([6]; 3.33 µM): 0.918 ± 0.13
normalised growth rate inhibition ([6]; 10 µM): 0.801 ± 0.12

CCC(=O)N1CCN(c2ccc(-n3c(=O)ccc4cnc5ccc(-c6cnc7ccccc7c6)cc5c43)cc2C(F)(F)F)CC1 [torin-1]
normalised growth rate inhibition ([1]; 0.04 µM): 0.529 ± 0.13
normalised growth rate inhibition ([1]; 0.12 µM): 0.304 ± 0.042
normalised growth rate inhibition ([1]; 0.37 µM): 0.198 ± 0.017
normalised growth rate inhibition ([1]; 1.11 µM): 0.161 ± 0.026
normalised growth rate inhibition ([1]; 3.33 µM): 0.156 ± 0.006
normalised growth rate inhibition ([1]; 10 µM): 0.0917 ± 0.027
normalised growth rate inhibition ([2]; 0.04 µM): 0.271 ± 0.076
normalised growth rate inhibition ([2]; 0.12 µM): 0.11 ± 0.081
normalised growth rate inhibition ([2]; 0.37 µM): 0.0128 ± 0.054
normalised growth rate inhibition ([2]; 1.11 µM): -0.0682 ± 0.033
normalised growth rate inhibition ([2]; 3.33 µM): -0.152 ± 0.025
normalised growth rate inhibition ([2]; 10 µM): -0.251 ± 0.026
normalised growth rate inhibition ([3]; 0.04 µM): 0.0209 ± 0.19
normalised growth rate inhibition ([3]; 0.12 µM): -0.0144 ± 0.18
normalised growth rate inhibition ([3]; 0.37 µM): -0.0642 ± 0.15
normalised growth rate inhibition ([3]; 1.11 µM): -0.11 ± 0.18
normalised growth rate inhibition ([3]; 3.33 µM): -0.161 ± 0.17
normalised growth rate inhibition ([3]; 10 µM): -0.218 ± 0.19
normalised growth rate inhibition ([4]; 0.04 µM): 0.267 ± 0.069
normalised growth rate inhibition ([4]; 0.12 µM): 0.213 ± 0.075
normalised growth rate inhibition ([4]; 0.37 µM): 0.163 ± 0.086
normalised growth rate inhibition ([4]; 1.11 µM): 0.0994 ± 0.083
normalised growth rate inhibition ([4]; 3.33 µM): 0.0438 ± 0.084
normalised growth rate inhibition ([4]; 10 µM): -0.093 ± 0.14
normalised growth rate inhibition ([5]; 0.04 µM): 0.166 ± 0.044
normalised growth rate inhibition ([5]; 0.12 µM): 0.119 ± 0.024
normalised growth rate inhibition ([5]; 0.37 µM): 0.082 ± 0.038
normalised growth rate inhibition ([5]; 1.11 µM): 0.0141 ± 0.045
normalised growth rate inhibition ([5]; 3.33 µM): -0.0224 ± 0.046
normalised growth rate inhibition ([5]; 10 µM): -0.068 ± 0.033
normalised growth rate inhibition ([6]; 0.04 µM): 0.464 ± 0.038
normalised growth rate inhibition ([6]; 0.12 µM): 0.339 ± 0.053
normalised growth rate inhibition ([6]; 0.37 µM): 0.243 ± 0.073
normalised growth rate inhibition ([6]; 1.11 µM): 0.178 ± 0.051
normalised growth rate inhibition ([6]; 3.33 µM): 0.116 ± 0.055
normalised growth rate inhibition ([6]; 10 µM): -0.0316 ± 0.1
